Assay results: patent US20220040252A1, “TREATMENT OF PROSTATE CANCER BY ANDROGEN ABLATION AND IL-8 BLOCKADE” (The Trustees of Columbia University in the City of New York, priority 2019, published 2022)
Where two headings read alike, the source gives them in different places.

Legend:
IL-8 [1] = test: qRT-PCR quantification of IL-8 in LNCaP cells; assay type: cell-based, human; conditions: LNCaP cells in androgen-free media, FIG. 1f
Procedure: Myc-Cap, derived from spontaneous prostate cancer in c-Myc transgenic mice, was a generous gift from Dr. C. Sawyers. To generate MCRedAL, Myc-Cap cells were transfected with pRetroQ-mCherry-C1 (Clontech) using lipofectamine 2000 (Invitrogen) and isolated by FACS sorting based on mCherry expression (Extended Data FIG. 1a). Myc-Cap and MCRedAL cells were cultured in DMEM as previously described. LNCaP, VCaP, E006AA, CWR22Rv1, DU145, and PC3 cell lines were obtained and cultured as recommended by the ATCC. LAPC4 (a gift from Dr. S. Yegnasubramanian) were maintained in RPMI-1640 (Corning) supplemented with 10% fetal bovine serum (FBS; Gemini Bio-Products). Androgen independent LNCaP-abl cells were a gift from Dr. Z. Culig and cultured as described previously^29. LAPC4-CR and VCaP-CR (a gift from S. Yegnasubramanian) were derived by passaging LAPC4 and VCaP cells through castrated animals and further subculturing in RPMI-1640 supplemented with 10% charcoal stripped serum (CSS; Gemini Bio-Products) supplemented with 1×B-27 Neuronal Supplement (Gibco). For experiments when cells were grown in androgen-free conditions, 10% FBS was substituted for 10% CSS in complete media. For migration/chemotaxis assays, prostate cancer cell lines were cultured in complete media containing either 0.5% or 2.5% FBS for human and murine cells, respectively. […]

IL-8 (CXCL8) promoter [2] = conditions: LNCaP cells, DHT 100 nM
Procedure: Chromatin immunoprecipitation was performed. In brief, LNCaP cells were washed with serum-free media and then grown in media containing 10% charcoal stripped FBS for 48 hours. Cells were treated with 100 nM DHT or vehicle for 8 hours. DNA was cross-linked with 1% formaldehyde in PBS for 10 minutes and crosslinking was quenched by addition of 0.125 M glycine. Fixed cells were then lysed in lysis buffer (1% SDS, 5 mM EDTA, 50 mM Tris HCl, pH8.1) and sonicated to a fragment size of 200-600 bp using a Covaris water bath sonicator (Woburn, Mass.). Sheared chromatin was then incubated with primary antibodies (AR [06-680, Millipore], H3K4me3 [ab8580, Abcam], phospho-SerS RNA polymerase 2 [ab5131, Abcam], RNA polymerase 2 [4H8, Cell Signaling Technologies] or control IgG [Cell Signaling Technologies]) overnight at 4° C. Complexes were immobilized on Dynabeads (Thermo Fisher) by incubating for 4 hours at 4° C. Beads were sequentially washed with TSEI (0.1% SDS, 1% Triton X-100, 2 mM EDTA, 20 mM Tris HCl, pH 8.1, 150 mM NaCl), TSEII (0.1% SDS, 1% Triton X-100, 2 mM EDTA, 20 mM Tris HCl, pH 8.1, 500 mM NaCl) and TSEIII (0.25 M LiCl, 1% NP-40, 1% deoxycholate, 1 mM EDTA, 10 mM Tris HCl, pH 8.1). […] Enriched DNA libraries were analyzed using primers specific to IL-8 locus: Forward: 5′ [sequence] […] 3′ (SEQ ID NO: 2) using quantitative (q) RT-PCR. […]

PSA (KLK3) promoter = conditions: LNCaP cells, DHT 100 nM, FIG. 1h right
Procedure: Chromatin immunoprecipitation was performed. In brief, LNCaP cells were washed with serum-free media and then grown in media containing 10% charcoal stripped FBS for 48 hours. Cells were treated with 100 nM DHT or vehicle for 8 hours. […] Fixed cells were then lysed in lysis buffer (1% SDS, 5 mM EDTA, 50 mM Tris HCl, pH8.1) and sonicated to a fragment size of 200-600 bp using a Covaris water bath sonicator (Woburn, Mass.). Sheared chromatin was then incubated with primary antibodies (AR [06-680, Millipore], H3K4me3 [ab8580, Abcam], phospho-SerS RNA polymerase 2 [ab5131, Abcam], RNA polymerase 2 [4H8, Cell Signaling Technologies] or control IgG [Cell Signaling Technologies]) overnight at 4° C. Complexes were immobilized on Dynabeads (Thermo Fisher) by incubating for 4 hours at 4° C. Beads were sequentially washed with TSEI (0.1% SDS, 1% Triton X-100, 2 mM EDTA, 20 mM Tris HCl, pH 8.1, 150 mM NaCl), TSEII (0.1% SDS, 1% Triton X-100, 2 mM EDTA, 20 mM Tris HCl, pH 8.1, 500 mM NaCl) and TSEIII (0.25 M LiCl, 1% NP-40, 1% deoxycholate, 1 mM EDTA, 10 mM Tris HCl, pH 8.1). DNA was eluted with IP Elution buffer (1% SDS, 0.1M NaHCO3, proteinase K) and incubated at 56° C. for 15 minutes. […] Data is shown as relative enrichment normalized to input DNA.

IL-8 (CXCL8) promoter [3] = conditions: LNCaP cells, cited from earlier work
Cxcl15 [4] = test: Cxcl15 expression in benign prostate epithelium of mice (RISH, qRT-PCR); assay type: in vivo, mouse; conditions: WT mice treated with ADT followed by testosterone repletion, FIG. 2g
Excerpt: Eight-week-old male HOXB13-GFP mice carrying the Hoxb13-rtTA transgene and a Tetracycline operator—Histone 2B-Green Fluorescent Protein (TetO-H2BGFP), which results on GFP expression being restricted to luminal epithelial Hoxb13^+ cells (described previously), were castrated via bilateral orchiectomy. A cycle of prostate regression/regeneration was induced as described previously. Briefly, mice were allowed to regress for six weeks to reach the fully involuted state. Mice were randomized to ADT or ADT+testosterone (T) treatment groups. Testosterone was administered for four weeks for prostate regeneration by subcutaneous pellets; this regimen yields physiological levels of serum testosterone. All mice received 2 mg/ml of Doxycycline (Sigma) in the drinking water to induce GFP expression under the control of the luminal epithelial promoter, HoxB13, one week prior euthanizing them for their analysis.
Manual fluorescent RNAScope was performed on formalin-fixed and zinc-fixed paraffin embedded sections using company protocols. Briefly, sections were cut at 5 μm, air dried overnight, baked at 60° C. for 1 hrs, dewaxed and air-dried before pre-treatments. RNAScope Cxcl15, 3-plex positive control probes (Polr2a, Ppib, Ubc) and 3-plex negative control probes (DapB of Bacillus subtilis strain) from Advanced Cell Diagnostics (ACD) were used in this study. […]

IL-8 [5] = conditions: men undergoing ADT with testosterone supplementation vs ADT, FIG. 2h; cited from earlier work
Myc-Cap tumors = test: Immune infiltration (PMN-MDSC, TIL, TAM) of Myc-Cap tumors by flow cytometry; assay type: in vivo, mouse; conditions: Myc-Cap allografts after ADT, FIG. 3b
Procedure: Eight-week-old male FVB/NJ and J:NU mice were subcutaneously inoculated in the right flank with either Myc-Cap or MCRedAL (1×10^6 cells/mouse), and LNCaP or PC3 (3×10^6 cells/mouse), respectively. Tumor diameters were measured with electronic calipers every 3 days as indicated and the tumor volume was calculated using the formula: [longest diameter×(shortest diameter)^2]/2. Myc-Cap tumor bearing mice received androgen-deprivation therapy (ADT) 4 weeks after tumor implantation when tumor volume reached ˜500 mm^3, as indicated in figure legends. […] Onset of castration-resistance was defined as the time to tumor size increased by 30% (˜650 mm^3) after ADT. Chemical castration by ADT was compared to bilateral orchiectomy as described in FIG. 1a. […]
Single-cell suspensions from prostate tumor and tissues were prepared using the Mouse Tumor Dissociation Kit according to the manufacturer's recommendations (Miltenyi). […] Gates of cytokines were determined by fluorescence minus one (FMO) controls. Staining was visualized by fluorescenceactivated cell sorting (FACS) analysis using a BD FACSCelesta™ (BD Biosciences) and analyzed using FlowJo® (Flowjo LLC). […]

Cxcl15 [6] = test: Expression analysis of sorted MCRedAL tumor cells pre- and post-ADT; assay type: in vivo, mouse
Procedure: Eight-week-old male FVB/NJ and J:NU mice were subcutaneously inoculated in the right flank with either Myc-Cap or MCRedAL (1×10^6 cells/mouse), and LNCaP or PC3 (3×10^6 cells/mouse), respectively. Tumor diameters were measured with electronic calipers every 3 days as indicated and the tumor volume was calculated using the formula: [longest diameter×(shortest diameter)^2]/2. Myc-Cap tumor bearing mice received androgen-deprivation therapy (ADT) 4 weeks after tumor implantation when tumor volume reached ˜500 mm^3, as indicated in figure legends. […]
Tumors collected at different treatment time points were minced, lysed in CelLytic MT (Sigma) containing halt protease and phosphatase inhibitor (Thermo Fisher) in a 1:100 ratio, and incubated on ice for 30 minutes with intermittent vortexing. […] IL-8 and Cxcl15 were analyzed by ELISA kits following the manufacturer's instructions (BD Bioscience and R&D Systems, respectively).
MCRedAL tumor were harvested when their tumor volume reached ˜500 mm^3 (CS group), and 7 days after chemical castration (ADT). […] Resulting CEL files were analyzed in Affymetrix Expression Console (v. 1.4) using the SST-RMA method, and all samples passed the quality control. Log2 probe intensities were extracted from CEL (signal intensity) files and normalized using RMA quantile normalization, then further analyzed using Partek Genomics Suite v6.6. […]

IL-8 [7] = conditions: high-risk PCa patients treated with ADT (degarelix 240 mg SQ) vs untreated controls, FIG. 2i
Procedure: Formalin fixed, paraffin embedded (FFPE) human prostate cancer samples were obtained from consented patients treated with ADT (degarelix; 240 mg SQ) in a neo-adjuvant trial (NCT01696877) and matched control radical prostatectomies were obtained from patients treated at the Johns Hopkins Sidney Kimmel Comprehensive Cancer Center (Baltimore, Md.) under IRB-approved clinical protocol J1265. All patients provided written, informed consent. Total RNA was extracted using Trizol (Ambion). cDNA was prepared from total RNA preps using the RNA to cDNA EcoDry Premix (Clontech). Real-time assays were conducted using TaqMan real-time probes (Applied Biosystems). AA CT method was used for relative gene expression. Expression of the target gene was normalized to the reference gene (18S) and the mean expression level of the control group. LCM samples were normalized to 18S, TBP, and GAPDH reference genes. […] Sections were deparaffinized, hydrated and stained with hematoxylin prior to microdissection. Individual cancer cells and cancer cell clusters were microdissected by a trained pathologist using a LMD 7000 laser capture microscope (Leica). RNA was recovered from the microdisseceted material using the RNeasy FFPE kit (Qiagen). Quantitative RT-PCR was performed as described above. For the analysis, a Mann-Whitney U test was performed.

C[C@]12CCC(=O)C[C@@H]1CC[C@@H]1[C@@H]2CC[C@]2(C)[C@@H](O)CC[C@@H]12 [DHT, dihydrotestosterone]
IL-8 expression (qRT-PCR) (IL-8 [1]): did not affect IL-8 expression
androgen dependent AR binding at the IL-8 promoter (ChIP-qRT-PCR) (IL-8 (CXCL8) promoter [2]; FIG. 1h): verified by ChIP-qRT-PCR
binding of pol II, pSer2 pol II and H3K4me3 to the IL-8 locus (IL-8 (CXCL8) promoter [2]; FIG. 1h left): substantially reduced
pSer2 pol II binding to the promoter of PSA (KLK3) (PSA (KLK3) promoter): significantly increased
AR binding at the IL-8 promoter (in silico ChIP-Seq analysis, GSE83860) (IL-8 (CXCL8) promoter [3]; DHT 100 nM, FIG. 1g top): found AR binding at the IL-8 promoter

C[C@]12CC[C@H]3[C@@H](CCC4=CC(=O)CC[C@@]43C)[C@@H]1CC[C@@H]2O [testosterone]
epithelial Cxcl15 expression (Cxcl15 [4]): expression significantly decreased by testosterone repletion
IL-8 mRNA expression (IL-8 [5]): significantly reduced IL-8 mRNA expression

TNFα
IL-8 expression (qRT-PCR) (IL-8 [1]): upregulated IL-8 expression in a dose-dependent manner
p65 binding at the IL-8 (CXCL8) promoter (ChIP-Seq, GSE83860) (IL-8 (CXCL8) promoter [3]; TNFα 1000 U/ml, FIG. 1g bottom): significantly increased p65 binding

degarelix acetate [ADT]
T cell influx into tumor (Myc-Cap tumors): promoted a transient T cell influx
tumor associated macrophage (TAM) populations (Myc-Cap tumors): without significant changes in tumor associated macrophage (TAM) populations
Cxcl15 transcript (microarray) (Cxcl15 [6]; MCRedAL tumor cells, 7 days after chemical castration vs castration-sensitive, FIG. 1d): significantly up-regulated post-ADT
Cxcl15 (qRT-PCR and ELISA) (Cxcl15 [6]; post-ADT, data not shown): confirmed the upregulation of Cxcl15 post-ADT at the protein level
IL-8 expression (qRT-PCR) (IL-8 [7]): increased IL-8 expression
